One data set addresses T1, human RORγt (Homo sapiens, UniProt P51449).
T1 construct: the full-length cDNA of human RORγt; expressed in transfected cells; host or cells: COS-7 (monkey kidney)
T1 sequence (P51449 1-497 isoform P51449-2): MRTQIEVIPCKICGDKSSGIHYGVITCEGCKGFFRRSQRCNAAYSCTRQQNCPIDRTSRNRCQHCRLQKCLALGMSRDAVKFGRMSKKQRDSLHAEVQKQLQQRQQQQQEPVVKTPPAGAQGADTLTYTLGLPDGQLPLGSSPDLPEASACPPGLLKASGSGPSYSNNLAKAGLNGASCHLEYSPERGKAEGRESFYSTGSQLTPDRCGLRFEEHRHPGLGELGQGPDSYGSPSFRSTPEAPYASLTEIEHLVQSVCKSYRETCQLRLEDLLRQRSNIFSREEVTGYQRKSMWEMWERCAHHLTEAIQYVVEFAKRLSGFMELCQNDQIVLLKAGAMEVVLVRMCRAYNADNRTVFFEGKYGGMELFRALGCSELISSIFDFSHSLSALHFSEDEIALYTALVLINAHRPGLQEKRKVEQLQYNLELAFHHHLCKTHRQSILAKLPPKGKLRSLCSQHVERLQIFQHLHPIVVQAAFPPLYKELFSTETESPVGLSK
In words: RORE Luciferase/RORγt transactivation assay. It counts as cell-based. As to conditions: COS-7 cells transfected with human IL-17 promoter luciferase reporter and RORγt plasmid; 20 h with compound; read-out: IC50, RORγt activity inhibition. Summed up:
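COS-7 cells were transiently co-transfected with a human IL-17 promoter (RORE/CNS)–luciferase reporter and a RORγt expression plasmid, then seeded at 10000 cells/well in serum-free, phenol red-free DMEM. Compounds were added at 0.3% DMSO final. Luciferase was read with Steady-Glo, and IC50 and Emax were derived.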
Background: Reporter assays use an easily measured gene product as a stand-in for the process of interest.

Data set [1] relates to Murine EL-4 lymphoma cell line overexpressing human RORγt. In words: IL-17 secretion from EL4 murine lymphoma. The class given is cell-based. Conditions: Mus musculus; human RORγt-transfected EL4 cells, PMA (10 ng/mL) and ionomycin (1 μM), 24 h; read-out: IC50, IL-17 secretion inhibition. On the procedure: Murine EL-4 lymphoma cell line overexpressing human RORγt was used in this functional assay to assess compound ability to inhibit IL-17 cytokine secretion.
EL-4 cells are maintained in a standard culture medium RPMI supplemented with 10% fetal calf serum, 1% sodium pyruvate, 1% essential amino acids and 1% antibiotics at 37° C. in a humidified atmosphere of 5% CO02 and 95% air. Culture medium was changed every 2 days. EL4 cells were transfected with a plasmid encoding hRORγt (sequence identical to published sequence NM 001001523). […] Briefly, 1 μg of DNA/1 million cells was served to transfect EL-4 cells. Cell/DNA suspension was transferred into certified cuvette and the electroporation of RORγt plasmid was carried out using appropriate Nucleofector® program.
Cells were seeded in 96 well plates at a density of 150000 cells/I well then treated with compounds of this invention at indicated concentrations and incubated for 24 hours at 37° C. in a humidified atmosphere of 5% C02 and 95% air. EL-4 cells were pretreated with test compounds (RORγ modulators) and stimulated with PMA (10 ng/mL) and ionomycin (1 μM final concentration) in the presence of test compound concentrations for additional 24 h at 37° C. in a humidified atmosphere of 5% C02 and 95% air. Subsequently, supernatants were collected (after centrifugation at 300 g for 10 minutes) to determine the concentrations of IL-17 by HTRF (CisBio, France) or ELISA (R&D Systems Europe) according to the manufacturer's protocols.

For the compound `Cc1ccc(C(NC(=O)Cc2ccc3c(c2)C(C)(O)C(=O)N3)c2ccc(C)o2)c(N2CCCCC2)c1` (centres unmarked) [Cpd. 47, 2-(3-hydroxy-3-methyl-2-oxo-2,3-dihydro-1H-indol-5-yl)-N-{[4-methyl-2-(piperidin-1-yl)phenyl](5-methylfuran-2-yl)methyl}acetamide], the melting point (in general, the temperature of the solid-liquid transition) is 112 °C. For the same compound, the concentration for half-maximal inhibition (IC50) (commonly the concentration at which inhibition is half-maximal) at human RORγt is 0.01 to 0.1 µM. Further, in data set [1], the concentration for half-maximal inhibition (IC50) is 0.1 to 1 µM.

Compound `Cc1ccc(C(NC(=O)Cc2ccc3[nH]c(C)nc3c2)c2ccccc2)c(N2CCCCC2)c1` (centres unmarked) [Cpd. 75, 2-(2-methyl-1H-1,3-benzodiazol-5-yl)-N-{[4-methyl-2-(piperidin-1-yl)phenyl](phenyl)methyl}acetamide] showed a melting point of 137 °C. The IC50 at human RORγt lay in the range of 0.01 to 0.1 µM. In addition, in data set [1], the concentration for half-maximal inhibition (IC50) is 0.1 to 1 µM.

In the case of `Cc1ccc(C(NC(=O)Cc2ccc3c(CO)c[nH]c3c2)c2ccc(C)o2)c(N2CCCCC2)c1` (centres unmarked) [Cpd. 88, 2-[3-(hydroxymethyl)-1H-indol-6-yl]-N-{[4-methyl-2-(piperidin-1-yl)phenyl](5-methylfuran-2-yl)methyl}acetamide], the melting point stood at 92 °C. Also, the half-inhibitory concentration (IC50) at human RORγt fell in the range of 0.01 to 0.1 µM. The 50% inhibitory concentration (IC50) in data set [1] was less than 0.1 µM.

In turn, `Cc1ccc(C(NC(=O)C2(c3ccc4[nH]cc(CO)c4c3)CC2)c2ccc(C)o2)c(N2CCCCC2)c1` (centres unmarked) [Cpd. 89, 1-[3-(hydroxymethyl)-1H-indol-5-yl]-N-{[4-methyl-2-(piperidin-1-yl)phenyl](5-methylfuran-2-yl)methyl}cyclopropane-1-carboxamide] had a melting point of 112 °C. Also, the IC50 at human RORγt is less than 0.01 µM. The 50% inhibitory concentration (IC50) in data set [1] was less than 0.1 µM.

For `Cc1ccc(C(NC(=O)Cc2ccc3[nH]cc(CN4CCOCC4)c3c2)c2ccc(C)o2)c(N2CCCCC2)c1` (centres unmarked) [Cpd. 94, N-{[4-methyl-2-(piperidin-1-yl)phenyl](5-methylfuran-2-yl)methyl}-2-[3-(morpholin-4-ylmethyl)-1H-indol-5-yl]acetamide], the melting point was 100 °C. Besides, the IC50 on human RORγt was in the range of 0.01 to 0.1 µM. Further, in data set [1], the 50% inhibitory concentration (IC50) was less than 0.1 µM.

For the compound `Cc1ccc(C(NC(=O)Cc2ccc3c(ccn3CCC(=O)O)c2)c2ccc(C)o2)c(N2CCCCC2)c1` (centres unmarked) [Cpd. 97, 3-{5-[({[4-methyl-2-(piperidin-1-yl)phenyl](5-methylfuran-2-yl)methyl}carbamoyl)methyl]-1H-indol-1-yl}propanoic acid], the melting point was 95 °C. For the same compound, the IC50 at human RORγt fell in the range of 0.01 to 0.1 µM. In addition, the 50% inhibitory concentration (IC50) in data set [1] lay within 0.1 to 1 µM.

`Cc1ccc(C(NC(=O)Cc2ccc3[nH]cc(C(=O)CS(C)(=O)=O)c3c2)c2ccc(C)o2)c(C)c1` (centres unmarked) [Cpd. 107, N-[(2,4-dimethylphenyl)(5-methylfuran-2-yl)methyl]-2-[3-(2-methanesulfonylacetyl)-1H-indol-5-yl]acetamide]: the IC50 on human RORγt lay in the range of 0.1 to 1 µM; in data set [1], 1 to 10 µM.

In the case of `Cc1ccc(C(NC(=O)C2(c3ccc4[nH]ccc4c3)CC2)c2ccc(C)o2)c(C)c1` (centres unmarked) [Cpd. 108, N-[(2,4-dimethylphenyl)(5-methylfuran-2-yl)methyl]-1-(1H-indol-5-yl)cyclopropane-1-carboxamide], the IC50 was 0.01 to 0.1 µM at human RORγt and less than 0.1 µM in data set [1].

The compound `COc1ccc(C(NC(=O)Cc2ccc3c(ccn3CCC(=O)O)c2)c2ccc(C)o2)c(N2CCCCCC2)c1` (centres unmarked) [Cpd. 111, 3-{5-[({[2-(azepan-1-yl)-4-methoxyphenyl](5-methylfuran-2-yl)methyl}carbamoyl)methyl]-1H-indol-1-yl}propanoic acid] yielded a melting point of 80 °C. Also, the IC50 at human RORγt is 0.01 to 0.1 µM. For the same compound, the concentration for half-maximal inhibition (IC50) in data set [1] fell in the range of 0.1 to 1 µM.

With `Cc1ccc(C(NC(=O)Cc2ccc3[nH]cc(CCS(C)(=O)=O)c3c2)c2ccc(Cl)o2)c(N2CCCC2)c1` (centres unmarked) [Cpd. 112, N-[(5-chlorofuran-2-yl)[4-methyl-2-(pyrrolidin-1-yl)phenyl]methyl]-2-[3-(2-methanesulfonylethyl)-1H-indol-5-yl]acetamide], the half-maximal inhibitory concentration (IC50) lay within 0.01 to 0.1 µM at human RORγt and 0.1 to 1 µM in data set [1].

Turning to `Cc1ccc(C(NC(=O)Cc2ccc3ccn(C(=O)N4CCOCC4)c3c2)c2ccc(C)o2)c(N2CCCCC2)c1` (centres unmarked) [Cpd. 114, N-{[4-methyl-2-(piperidin-1-yl)phenyl](5-methylfuran-2-yl)methyl}-2-[1-(morpholine-4-carbonyl)-1H-indol-6-yl]acetamide], the values for the half-inhibitory concentration (IC50) (at human RORγt; in data set [1]) were 0.01 to 0.1 µM and 0.1 to 1 µM, respectively.

Consider `CNS(=O)(=O)c1c[nH]c2ccc(CC(=O)NC(c3ccc(C)o3)c3ccc(C)cc3N3CCCCC3)cc12` (centres unmarked) [Cpd. 115, N-{[4-methyl-2-(piperidin-1-yl)phenyl](5-methylfuran-2-yl)methyl}-2-[3-(methylsulfamoyl)-1H-indol-5-yl]acetamide], for which the figures for the IC50 (on human RORγt; in data set [1]) were 0.01 to 0.1 µM and 0.1 to 1 µM, respectively.

Consider `Cc1ccc(C(NC(=O)Cc2ccc3c(ccn3C(=O)N3CCOCC3)c2)c2ccc(C)o2)c(N2CCCCC2)c1` (centres unmarked) [Cpd. 116, N-{[4-methyl-2-(piperidin-1-yl)phenyl](5-methylfuran-2-yl)methyl}-2-[1-(morpholine-4-carbonyl)-1H-indol-5-yl]acetamide], for which the melting point came out at 88 °C. In addition, the IC50 on human RORγt was 0.01 to 0.1 µM. Further, the concentration for half-maximal inhibition (IC50) in data set [1] is less than 0.1 µM.

`Cc1ccc(C(NC(=O)Cc2ccc3c(C(=O)CS(C)(=O)=O)c[nH]c3c2)c2ccc(C)o2)c(N2CCCCC2)c1` (centres unmarked) [Cpd. 117, 2-[3-(2-methanesulfonylacetyl)-1H-indol-6-yl]-N-{[4-methyl-2-(piperidin-1-yl)phenyl](5-methylfuran-2-yl)methyl}acetamide] returned a melting point of 85 °C. Besides, the concentration for half-maximal inhibition (IC50) on human RORγt is 0.01 to 0.1 µM. The IC50 in data set [1] lay within 0.1 to 1 µM.

Compound `Cc1ccc(C(NC(=O)C2(c3ccc4[nH]cc(CNS(C)(=O)=O)c4c3)CC2)c2ccc(C)o2)c(N2CCCCC2)c1` (centres unmarked) [Cpd. 119, 1-[3-(methanesulfonamidomethyl)-1H-indol-5-yl]-N-{[4-methyl-2-(piperidin-1-yl)phenyl](5-methylfuran-2-yl)methyl}cyclopropane-1-carboxamide] came in with a melting point of 109 °C. Moreover, at human RORγt, the IC50 fell in the range of 0.01 to 0.1 µM. Further, in data set [1], the 50% inhibitory concentration (IC50) was less than 0.1 µM.

For `Cc1ccc(C(NC(=O)Cc2ccc3[nH]cc(C(=O)N4CCOCC4)c3c2)c2ccc(C)o2)c(N2CCCCC2)c1` (centres unmarked) [Cpd. 120, N-{[4-methyl-2-(piperidin-1-yl)phenyl](5-methylfuran-2-yl)methyl}-2-[3-(morpholine-4-carbonyl)-1H-indol-5-yl]acetamide], the figures for the IC50 (on human RORγt; in data set [1]) were 0.01 to 0.1 µM and less than 0.1 µM, respectively.

`CC(=O)N1CCc2cc(C3(C(=O)NC(c4ccc(C)o4)c4ccc(C)cc4C)CC3)ccc21` (centres unmarked) [Cpd. 126, 1-(1-acetyl-2,3-dihydro-1H-indol-5-yl)-N-[(2,4-dimethylphenyl)(5-methylfuran-2-yl)methyl]cyclopropane-1-carboxamide]: the IC50 on human RORγt was 0.01 to 0.1 µM; in data set [1] it was 0.1 to 1 µM.
